Source: US4469701A, “Pyrrolid-3-en-2-ones and pharmaceutical methods of use thereof” (Stauffer Chemical Company, priority 1983, dated 1984)

Columns and labels:
[1] = test system: spontaneously hypertensive rats (SHR); experiment: Antihypertensive: blood pressure (tail cuff) in spontaneously hypertensive rats (SHR); type: in vivo, rat; conditions: Rattus norvegicus; 6 hr. after a 100 mg/kg oral dose; significance >10; read-out: Antihypertensive: percent decrease in systolic blood pressure in spontaneously hypertensive rats
Procedure: Blood pressure was measured indirectly (tail cuff) in unanesthetized, unheated spontaneously hypertensive rats (SHR) before and 2, 4, and 6 hours after p.o. dosing. Reduction in mean pressure by more than 10% (>10) at any two consecutive measurement times after dosing indicates antihypertensive activity.

rats [2] = experiment: Bradycardia: heart rate by EKG in rats; type: in vivo, rat
Procedure: […] Decrease in heart rate by more than 10% (>10) is considered a bradycardic effect.
Percent decrease in heart rate 45 min. after a 5
mg/kg oral dose in rats.

mice = experiment: Antiarrhythmic: chloroform-induced cardiac arrhythmia in mice; type: in vivo, mouse; conditions: 15 min. after a 200 mg/kg intraperitoneal dose; significance <2
Procedure: ^2 A = Antiarrythmic. Less than 2/3 mouse hearts fibrillating 15 min.

[3] = test system: hypercholesterolemic mice; experiment: Hypocholesterolemic: serum cholesterol in hypercholesterolemic mice; type: in vivo, mouse
Procedure: Mice made hypercholesterolemic by being fed a high cholesterol-cholic acid diet for 7 days were dosed on the sixth and seventh days, p.o. After fasting overnight, reduction in serum cholesterol concentration by more than 15% (>15) from hypercholesterolemic control mice indicates activity.
^4 C = Hypocholesterolemic. Percent decrease in serum cholesterol in
hypercholesterolemic mice given 2 oral doses of 200 mg/kg drug candidate

rats [4] = experiment: Antiulcer: stress induced gastric ulcers in rats; type: in vivo, rat
Procedure: Fasted rats were dosed, p.o., 30 minutes before immobilization in wire mesh and partial immersion in water for 4 hours. Inhibition of the resulting stress induced gastric ulcers by more than 60% (>60) indicates activity.
^6 U = Antiulcerative. Percent inhibition of stress ulcers 4 hr.
following a 50 mg/kg oral dose in rats.

[5] = test system: hypercholesterolemic mice; experiment: HP-betalipoprotein: serum heparin precipitating lipoprotein (HPL); type: in vivo, mouse; conditions: 200 and 400 mg/kg, p.o.
Source text: Reduction of serum heparin precipitating lipoprotein (HPL) concentrations (corresponding to low density lipoprotein and very low density lipoprotein fractions) in the same hypercholesterolemic mice from Test 6 above by more than 20% (>20) from control animals indicates activity.

[6] = Anticholinergic properties (overall statement); conditions: in vivo
Estrogenic effects = conditions: in vivo

- Estrogenic effects (Estrogenic effects): No estrogenic effects
SMILES: CC1(C)CCCC(C)(C)N1CC1=CC(=O)N(c2cc(C(F)(F)F)ccc2Cl)C1 [Compound 10]
- inhibition in vivo at 100 mg/kg [1]: 15%
- inhibition in vivo at 5 mg/kg (rats [2]; Rattus norvegicus, 0.75 h, 45 min. after a 5 mg/kg oral dose in rats, significance >10, read-out: B = Bradycardiac: percent decrease in heart rate): 1%
- Bradycardic effects, in words (rats [2]; rat, in vivo): No
- A = Antiarrythmic: mouse hearts fibrillating (of 3) (mice): 3
- Serum cholesterol, in words ([3]; 200 and 400 mg/kg, p.o.): Marked reductions
- inhibition in vivo at 200 mg/kg ([3]; Mus musculus, hypercholesterolemic mice, 2 oral doses of 200 mg/kg 20 hr. apart, significance >20, read-out: C = Hypocholesterolemic: percent decrease in serum cholesterol): 46%
- Protection from stress-induced gastric ulcers, in words (rats [4]; 50 mg/kg, p.o., rats): partially protected
- inhibition in vivo at 50 mg/kg (rats [4]; Rattus norvegicus, 4 hr. following a 50 mg/kg oral dose in rats, significance >60, read-out: U = Antiulcerative: percent inhibition of stress ulcers): 75%
- HPL/cholesterol ratio [5]: large reductions
- Heparin precipitating lipoproteins (HPL), in words [5]: Marked reductions
- Anticholinergic properties/effects [6]: absence of evidence of anticholinergic effects
